Here are results for six compounds from paper PMC10350920, “Development of a 2,4-Diaminothiazole Series for the Treatment of Human African Trypanosomiasis Highlights the Importance of Static–Cidal Screening of Analogues” (Journal of Medicinal Chemistry, 2023).

Read-outs that look alike come from different tables or passages of the source.

The test system of data set [1] is BSF T. b. brucei “single marker” S427. The data set can be described thus: Drug sensitivity assay with bloodstream-form T. brucei. It is filed as cell-based. The following applies: Trypanosoma brucei; mean values; number of replicates in parentheses. How it is done:
(§1) Drug sensitivity assays with BSF T. b. brucei “single marker” S427 and human MRC-5 fibroblasts were conducted as previously described.[43]

A short description of data set [2]: Mammalian cell counter screen (MRC-5). The following applies: human, MRC-5 fibroblasts; mean values; number of replicates in parentheses. It is filed as cell-based, human. As to the method:
as §1

The test system of the next data set is human MRC-5 fibroblasts. The data set can be described thus: Mammalian cell counter screen (MRC-5). The following applies: for SI: selectivity index (EC50 MRC5/EC50 T. brucei). It is filed as cell-based. As to the method: as §1
Data set [3] is described as follows: Mouse liver microsomal intrinsic clearance. It is filed as in vitro ADME. An outline of the steps: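 Compound (0.5 μM) incubated with liver microsomes (0.5 mg/mL, 50 mM potassium phosphate pH 7.4) and excess NADPH; samples quenched at 0–30 min and analysed by UPLC–MS/MS. Rate constant from exponential decay of compound/internal standard ratio; CLint scaled with 52.5 mg protein/g liver.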
In general terms: Microsomes from liver hold many membrane-bound enzymes, among them those of drug oxidation.

The test system of the next data set is TbGSK3. Also noted: method as in PMID 23776181. The following applies: recombinant enzyme, previously established; cited from earlier work.
Data set [4] in a line: Human microsomal intrinsic clearance. It is filed as in vitro ADME. The following applies: second value of mouse/human cell.
The nature of data set [5]: Equilibrium dialysis, free fraction in plasma. It is filed as in vitro ADME, mouse. The following applies: matrix not given. How it is done:
In brief, a 96-well equilibrium dialysis apparatus was used to determine the free fraction in plasma and the brain (HT Dialysis LLC, Gales Ferry, CT). Isotonic buffer was prepared using 8.69 g of Na2HPO4, 1.9 g of KH2PO4, and 4.11 g of NaCl dissolved in 1 L of Milli-Q water, and the pH was adjusted to 7.4. Artificial CSF was prepared using 3.652 g of NaCl, 93.2 mg of KCl, 119.96 mg of MgCl2, 92.61 mg of CaCl2, and 268 mg of Na2HPO4 heptahydrate dissolved in 0.5 L of water, and the pH was adjusted to 7.4. Membranes [12–14 (plasma) or 6–9 (brain) kDA cutoff] were conditioned in deionized water for 60 min, followed by conditioning in 80:20 deionized water/ethanol for 20 min, and then rinsed in isotonic buffer (plasma) or […] (brain) before use. Female CD1 mouse plasma was defrosted and centrifuged for 10 min at 3000 rpm (Allegra X12-R, Beckman Coulter, USA). The control mouse brain was homogenized in two volumes of artificial CSF in a Covaris S2 acoustic homogenizer. Plasma or brain homogenate was spiked with the test compound (10 μg mL^–1), and 150 μL aliquots (n = 3 replicate determinations) were loaded into the 96-well equilibrium dialysis plate. Dialysis versus 150 μL of isotonic buffer (plasma) or artificial CSF (brain) was carried out for 5 h in a temperature-controlled incubator at 37 °C (Barworld Scientific Ltd, UK) using an orbital microplate shaker at 125 rpm (Barworld Scientific Ltd, UK). At the end of the incubation period, aliquots of plasma/homogenized brain or buffer were transferred to a clean 96-well plate, and the composition in each well was balanced with control fluid, such that the volume of buffer to the matrix was the same. Sample extraction was performed by the addition of 400 μL of acetonitrile containing an appropriate internal standard. Samples were allowed to mix for 1 min and then centrifuged at 3000 rpm in 96-well blocks for 10 min (Allegra X12-R, Beckman Coulter, USA). All samples were analyzed by means of UPLC/MS/MS on a Quattro Premier XE or Micro TQs mass spectrometer (Waters Corporation, USA). The unbound fraction was determined as the ratio of the peak area in the buffer to that in the matrix.

Data set [6] can be described thus: Kinetic aqueous solubility (laser nephelometry). It is filed as physicochemical. The following applies: Milli-Q water with 2.5% DMSO. How it is done:
The kinetic aqueous solubility of the test compounds was measured using laser nephelometry. Compounds were subject to serial dilution from 10 to 0.5 mM in DMSO. An aliquot was then mixed with Milli-Q water to obtain an aqueous dilution plate with a final concentration range of 13–250 μM, with a final DMSO concentration of 2.5%. Triplicate aliquots were transferred to a flat-bottomed polystyrene plate which was immediately read on the NEPHELOstar (BMG Lab Technologies). The amount of laser scatter caused by insoluble particulates (relative nephelometry units, RNUs) was plotted against compound concentration using a segmental regression fit, with the point of inflection being quoted as the compound’s aqueous solubility (μM).

In the next data set the test system is T. brucei wild-type. The data set can be described thus: Drug sensitivity, wild-type parental line. It is filed as cell-based, T. b. brucei. The following applies: Trypanosoma brucei; weighted mean of ≥3 independent experiments. How it is done:
(§2) Drug sensitivity assays were carried out with BSF T. b. brucei “single marker” S427 or BSF T. b. brucei, Lister 427, MiTat 1.2, clone 221a 2T1 cells,[45] cells grown at 37 °C with 5% CO2 in an HMI-9T medium[46] as previously described.[47] 2T1 cells were initially maintained with 1 μg mL^–1 puromycin and 1 μg mL^–1 phleomycin prior to transfection or 2.5 μg mL^–1 hygromycin and 1 μg mL^–1 phleomycin after transfection. Induction of overexpression was achieved by the addition of 1 μg mL^–1 tetracycline to the culture medium.
(§3) Compound-resistant cell lines were generated by subculturing a clone of T. brucei in the continuous presence of 38. Starting at sublethal concentrations, drug concentrations in two independent cultures were increased in a stepwise manner, usually 2-fold. When parasites were able to survive and grow in concentrations of drugs equivalent to more than 10 times the established EC50 value, the resulting cell lines were cloned by limiting dilution in the presence of the compound. Two clones (RES I-II) were selected for further biological study. A standard alkaline lysis protocol was used to isolate genomic DNA from compound-resistant bloodstream T. brucei parasites (∼1 × 10^8). Whole genome sequencing was performed using a DNB-seq next-generation sequencing platform (BGI, Hong Kong). Sequencing reads (150 bp) were aligned to the T. brucei TREU927 genome (v39; tritrypDB) using Bowtie2[48] and Samtools[49] software. […] Samtools and BCFtools[52] (mpileup) were used to call SNP and indels compared with the wild-type starter clone, where the overall quality score (QUAL) was >100. Artemis[50] was used to analyze chromosome and gene copy number variation, as well as visualization of SNPs.

For another data set, the system named is T. brucei RES I. Put plainly: Drug sensitivity, compound 38-resistant clone RES I. It is filed as cell-based, T. b. brucei. The following applies: for EC50: Trypanosoma brucei, read-out: EC50, RES I; for fold resistance, RES I: relative to the parental wild-type, in brackets. How it is done: as §2, §3
The next data set concerns T. brucei RES II. Put plainly: Drug sensitivity, compound 38-resistant clone RES II. It is filed as cell-based, T. b. brucei. The following applies: for EC50: Trypanosoma brucei, read-out: EC50, RES II; for fold resistance, RES II: relative to the parental wild-type, in brackets. As to the method: as §2, §3
For data set [7], the system named is Tb927.8.6290 overexpressing cell lines (WT). The data set can be described thus: Drug sensitivity, line overexpressing Tb927.8.6290 WT. It is filed as cell-based, T. b. brucei. The following applies: for EC50: Trypanosoma brucei. How it is done:
as §2
(§4) The following primers were used to PCR amplify Tb927.8.6290 from genomic DNA isolated from wild-type and 38-resistant trypanosomes 5′-[…]-3′ (PacI site in bold) and 5′-[…]-3′ (BamHI site in bold). The PCR products (1272 bp) were then cloned into the pRPa plasmid.[53] The accuracy of the plasmid constructs was confirmed by in-house Sanger sequencing and then linearized with AscI prior to transfection. The linearized plasmids were introduced into 2T1 T. b. brucei cells following removal of puromycin from the media and selected with 2.5 μg mL^–1 hygromycin and 1 μg mL^–1 phleomycin. Two independent clones were selected for further studies.

In data set [8] the test system is Tb927.8.6290 overexpressing cell lines (A258P). The data set can be described thus: Drug sensitivity, line overexpressing Tb927.8.6290 A258P. It is filed as cell-based, T. b. brucei. The following applies: for EC50: Trypanosoma brucei. As to the method: as §2, §4
Data set [9] has as its system Tb927.8.6290 overexpressing cell lines (V241F/A258V). Put plainly: Drug sensitivity, line overexpressing Tb927.8.6290 V241F/A258V. The following applies: for EC50: Trypanosoma brucei. It is filed as cell-based, T. b. brucei. As to the method: as §2, §4

In general, IC50 refers to the midpoint of a concentration-inhibition curve. In the case of `CC(C)(C)C(=O)c1sc(NC2CCCCC2)nc1N` [Compound 1, 1-(4-Amino-2-(cyclohexylamino)thiazol-5-yl)-2,2-dimethylpropan-1-one], the figures for the EC50 in data set [1] and in [2] were 470 nM and more than 50000 nM, respectively. For the same compound, in the data set with human MRC-5 fibroblasts, the “selectivity over MRC-5 cell line” value is reported as approximately 200 fold. Further, in the data set with human MRC-5 fibroblasts, the SI is recorded as more than 100. The “CLint (mouse)” value in [3] is 2.5 mL·min/g. Further, in the data set with TbGSK3, the IC50 was 12000 nM.
On to `Nc1nc(NC2CCCCC2)sc1C(=O)c1ccc(OC(F)F)cc1` [Compound 26, (4-Amino-2-(cyclohexylamino)thiazol-5-yl)(4-(difluoromethoxy)phenyl)methanone], for which the EC50 was 60 nM in [1] and 22000 nM in data set [2]. Further, in data set [3], the “CLint (mouse)” value turned out to be 2.9 mL·min/g. In addition, the “CLint (human)” value in data set [4] worked out at 0.8 mL·min/g. The “Fu (free fraction)” value in data set [5] is “low”.
A word on the solubility: it is how much of the substance goes into solution per volume. For the compound `CC(OCC(=O)c1sc(Nc2ccn(C)n2)nc1N)C(F)(F)F` (stereo not drawn) [Compound 55, 1-(4-Amino-2-((1-methyl-1H-pyrazol-3-yl)amino)thiazol-5-yl)-2-((1,1,1-trifluoropropan-2-yl)oxy)ethan-1-one], the EC50 is 190 nM in data set [1] and 9400 nM in data set [2]. Moreover, in the data set on human MRC-5 fibroblasts, the SI is 50. Besides, the “CLint (mouse)” value in data set [3] worked out at 10.8 mL·min/g. In data set [6], this compound displayed a solubility of more than 100 µg/mL.
For `CC(OCC(=O)c1sc(Nc2ccc(C(F)(F)F)nc2)nc1N)C(F)(F)F` (stereo not drawn) [Compound 56, 1-(4-Amino-2-((6-(trifluoromethyl)pyridine-3-yl)amino)thiazol-5-yl)-2-((1,1,1-trifluoropropan-2-yl)oxy)ethanone], the EC50 in data set [1] was 520 nM; in data set [2], more than 50000 nM. This compound registered an SI with human MRC-5 fibroblasts of 96. This compound also registered a solubility in data set [6] of more than 100 µg/mL.
For the compound `Nc1nc(Nc2ccccc2)sc1C(=O)c1c(F)cccc1F` [Compound 69, reference compound], the EC50 in the data set on T. brucei wild-type worked out at 150 ± 3 nM; with T. brucei RES I, 360 ± 16 nM; in the data set on T. brucei RES II it was 390 ± 28 nM; in data set [7] (read-out: EC50, WT +TET) it was 410 ± 19 nM; in data set [7] (read-out: EC50, WT –TET) it was 170 ± 4 nM; in data set [8] (read-out: EC50, A258P +TET), 1400 ± 35 nM. Moreover, the EC50 in [8] (read-out: EC50, A258P –TET) was found to be 200 ± 9 nM; in data set [9] (read-out: EC50, V241F/A258V +TET), 1200 ± 51 nM; in data set [9] (read-out: EC50, V241F/A258V –TET), 180 ± 11 nM. Besides, the “fold resistance, RES I” value in the data set on T. brucei RES I worked out at 2. In addition, in the data set on T. brucei RES II, the “fold resistance, RES II” value is recorded as 3. Further, in [7] (−TET vs +TET EC50, in brackets), the “fold shift, WT” value was determined as 2. In addition, the “fold shift, A258P” value in data set [8] (−TET vs +TET EC50, in brackets) came to 7. Also, the “fold shift, V241F/A258V” value in [9] (−TET vs +TET EC50, in brackets) is 6.
Take `O=C1Nc2ccc3ncsc3c2/C1=C/Nc1ccc(S(=O)(=O)Nc2ccccn2)cc1` [GW8510]: the EC50 in the data set on T. brucei wild-type amounted to 120 ± 8 nM; in the data set on T. brucei RES I, 65 ± 4 nM; in the data set on T. brucei RES II, 110 ± 4 nM. Besides, the “fold resistance, RES I” value in the data set on T. brucei RES I came out at 1. In addition, in the data set with T. brucei RES II, the “fold resistance, RES II” value was found to be 1.
